Literature values, collected in patent publication US20130028992A1, “Herbal-Based Solution for Treating Symptoms of Nasal Conditions” (priority 2011, published 2013).

Columns and labels:
platelet aggregation = details: case of a heart attack
[1] = tested on: 25 strains of yeast, bacteria and mold

| Compound | time required to take effect (platelet aggregation) | antimicrobial effect of vapor [1] |
| --- | --- | --- |
| CC(=O)Oc1ccccc1C(=O)O [aspirin] | thirty |  |
| C=CCN=C=S [allyl isothiocyanate] |  | can combat 25 strains of yeast, bacteria and mold to varying degrees |
